Reference: patent publication EP2072511A1 (INSERM (Institut National de la Santé et de la Recherche …, priority 2007, dated 2009)

Assays:
[1] = target: T1, PrP^Sc from a prion-infected cellular lysate (Mus musculus, UniProt P04925)
[2] = target: PrP^Sc from infected N2a58/22L cells (Mus musculus, UniProt P04925); assay type: cell-based, murine
[3] = target: T1, PrP^Sc from a prion-infected cellular lysate; assay: biochemical; conditions: 1 h, read-out: amplification of the oligomerization in cellular extract

T1 sequence (P04925 23-230 limits assumed): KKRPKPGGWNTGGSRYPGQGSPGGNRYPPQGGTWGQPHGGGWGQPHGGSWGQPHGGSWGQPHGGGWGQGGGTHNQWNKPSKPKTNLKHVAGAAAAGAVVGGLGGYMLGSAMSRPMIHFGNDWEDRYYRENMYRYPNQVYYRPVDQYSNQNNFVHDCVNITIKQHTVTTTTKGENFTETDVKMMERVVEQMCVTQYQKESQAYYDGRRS
Chain of PrP^Sc from infected N2a58/22L cells (P04925 23-230 limits assumed): as above

Row | Structure (SMILES) | concentration at which the compound is efficient (oligomerization on cellular extract) [1] [µM] | amount of oligomeric forms observed, compared with compound T 1 or T2 under the same conditions [2] | dosis for which the saturation of the signal (effect of oligomerisation) is achieved [2] [µM] | fold induction at 1 µM [3]
1 | CSc1nccc(-c2ccc(Br)s2)n1 [T1] | ≥ 312 |  |  | 
2 | Nc1nc(N)nc(-c2ccc(-c3ccc(-c4ccc(-c5ccc(-c6nc(N)nc(N)n6)s5)s4)s3)s2)n1 [compound I, 6,6'-(2,2':5',2":5",2'''-quaterthiophene-5,5'''-diyl)bis(1,3,5-triazine-2,4-diamine)] |  | much greater | 2.5 | ≥ 100
